Measurements reported in patent US6692939B2, “Nucleotide sequences encoding mammalian calcium activated chloride channel-adhesion molecules” (Cornell Research Foundation, Inc., priority 1997, dated 2004).

B1: wtLu-ECAM-1: wild type Lu-ECAM-1 purified with mAb 6D3 from extracts of bovine aortic endothelial cells (protein)
chain: MVLCLNVILFLTLHLLPGMKSSMVNLINNGYDGIVIAINPSVPEDEKLIENIKEMVTEASTYLFHATKRRVYFRNVSILIPMTWKSKSEYFIPKQESYDQADVIVANPYLKYGDDPYTLQYGRCGEKGKYIHFTPNFLLTNNFHIYGSRGRVFVHEWAHLRWGIFDEYNVDQPFYISRKNTIEATRCSTHITGINVVFKKCPGGSCITSLCRRDSQTGLYEAKCTFLPKKSQTAKESIMFMPSLHSVTEFCTEKTHNTEAPNLQNKMCNGKSTWDVIMNSVDFQNTSPMTEMNPPTHPTFSLLKSKQRVVCLVLDKSGSMSAEDRLFQMNQAAELYLIQVIEKGSLVGMVTFDSVAEIQNHLTRITDDNVYQKITAKLPQVANGGTSICRGLKAGFQAIIHSDQSTSGSEIILLTDGEDNEINSCFEDVKRSGAIIHTIALGPSAAKELETKSNMTGGYRFFANKDITGLTNAFSRISSRSGSITQQAIQLESKALKITGRKRVNGTVPVDSTVGNDTFFVVTWTIQKPEIVLQDPKGKKYKTSDFKEDKLNIRSARLQIPGIAETGTWTYSLLNNHASSQMLTVTVTTRARSPTIPPVIATAHMSQHTAHYPSPMIVYAQVSQGFLPVLGISVIAIIETEDGHQVTLELWDNGAGRDTVKNDGIYSRYFTDYYGNGRYSLKVHAQARNNTARLNLRQPQNKVLYVPGYVENGKIILNPPRPEVKDDLAKAKIEDFSRLTSGGSFTVSGAPPPGNHPSVFPPSKITDLEAKFKEDYIQLSWTAPGNVLDKGKANSYIIRISKSFMDRQEDFDNATLVNTSNLIPKEAGSKENFEFKPEHFRVENGTKFYISVQAINEANLISEVSHIVQAIKFIPLPEDSVHDLGTKISEITLAILGLPMIFSVF
modifications: OTHER INFORMATION: Lu-ECAM-1 precursor from bovine endothelial cells
notes: wild type Lu-ECAM-1 purified with mAb 6D3 from extracts of bovine aortic endothelial cells

Experiments:
mCLCA1 = test: whole cell recording in mCLCA1-transfected HEK293 cells; format: cell-based, murine; details: for effect on Ca2+ sensitive chloride current under whole cell conditions: mCLCA1-transfected HEK293 cells
From the text: (§1) In another embodiment of the invention, mCLCA1 cDNA was cut from the pBluescript vector (Stratagene) with SacI and PvuI, blunt ended with Klenow Polymerase and inserted into the tetracycline sensitive mammalian expression vector (pTet-splice, Life Technologies, Inc.) at the EcoRV site. HEK293 cells were cotransfected with mCLCAl cDNA cloned into the pTet-splice along with a vector expressing a tetracycline activator (pTet-tTak) using standard transfection techniques well known to those skilled in the art and as described above (Lipofectamine, Life Technologies, Inc.). Cells were cotransfected with a reporter vector as described above. In another illustration of this embodiment, human CLCA1, HEK293 cells were transfected with either pcDNA 3.1 containing the CLCA1 insert and a reporter vector (enhanced green fluorescent protein, EGFP, CLONTECH) or the reporter vector alone. Transfection can be carried out by standard techniques known to those skilled in the art including CaPO4 precipitation or Lipofectamine (Life Technologies).
(§2) This embodiment illustrates that the full length cDNAs of the present invention encode calcium sensitive chloride channels. The various cDNAs were used for transfection of a cell line. For electrophysiological studies, cells were also cotransfected with a reporter vector (pEGFP, CLONTECH). Cotransfection with a reporter vector allows for easy identification of transfected cells by visualization under a fluorescent microscope. Whole cell recording was then carried out in the transfected cells to determine the presence of calcium sensitive chloride channels.
(§3) Transfected cells were used for electrophysiological recording. Cells were superfused with a bath solution containing 112 mM NMDG-Cl, 30 mM sucrose, 1 mM EGTA, 0.366 mM CaCl2, 2 mM MgCl2, 5 mM N-2-hydroxy-xyethanylpiperazine-N-2-ethanesulfonic acid. Whole cell channel activity was recorded in transfected cells by using borosilicate glass electrodes (tip resistance 4-9 M ohms) filled with the bath solution. Recordings were carried out in the presence or absence of a […] channel inhibitors (DIDS, niflumic acid and DTT). To determine the effect of ionomycin on channel activity, electrodes filled with standard bath solution containing either 5 mM ATP and 1 mM EGTA in the presence of low intracellular calcium. After gigaohm seal formation, cells were clamped at +20 mV. Whole cell currents were recorded at room temperature, sampled at 5-10 kHz and filtered at 1-2 kHz. The I-V relationship was determined using 300 ms voltage steps from a holding potential of +20 mV to potentials from −100 to +100 mV at 10 mV intervals. To normalize measured membrane currents to membrane currents to membrane capacitance, the capacitive current transient recorded in response to a 10 mV hyperpolarizing pulse was integrated and divided by the given voltage to give total membrane capacitance (Cm) for each cell.

hCLCA1 = test: whole cell recording in hCLCA1-transfected HEK293 cells; format: cell-based, human; details: for whole cell current after addition of inhibitor: hCLCA1-transfected cells, activated current 11.06 pA/pF
From the text: as §1, §2
as §3, with “To determine the effect of ionomycin on channel activity, electrodes filled with standard bath solution containing either 5 mM ATP and 1 mM EGTA in the presence of low intracellular calcium. After gigaohm seal formation, cells were clamped at +20 mV.” left out

hCLCA2 = test: whole cell recording in hCLCA2-transfected HEK293 cells; format: cell-based, human; details: for sensitivity of the current to inhibitor: DIDS 300 uM, DTT 2 mM, niflumic acid 100 uM, tamoxifen 10 uM
Procedure: For human CLCA2, HEK293 cells were transfected using Lipofectamine using manufacturer's instructions. For example, 5 ul lipid and 0.5 ul of CLCA2 were cloned into pcDNA 3.1 per 35 mm well in a 2-3 hour incubation. For expression studies, the 2,832 bp CLCA2 ORF was PCR amplified from human trachea poly-A^+RNA (Clontech) following reverse transcription with Superscript RNase H reverse transcriptase (Life Technologies) and random hexamer priming. PCR was performed with Pwo DNA Polymerase (Boehringer; initial denaturation at 94° C. for 3 min, 35 cycles of 94° for 50 s, 58° C. for 30s, and 72° C. for 2 min with a time increment of 3 s per cycle for each extension step (72° C.), followed by a final extension step of 72° C. for 8 min). Primer sequences were (upstream primer: SEQ ID NO:41, downstream primer: SEQ ID NO:42 with NotI-linkers underlined). PCR products were gel purified, incubated with NotI, and cloned into the expression vector pcDNA3.1 (Invitrogen). Four different PCR products were sequenced to control for potential PCR-induced sequence errors. Cells were simultaneously cotransfected with a reporter vector as described above. Chloride channel conductance activity was recorded after allowing the cells to recover for 24 hours.
as §2, §3

[1] = tested on: non-transfected or control-transfected cells; test: whole cell recording in non-transfected or control-transfected cells; format: cell-based; details: ionomycin 2 uM
Procedure: as §2
Transfected cells were used for electrophysiological recording. […] Whole cell channel activity was recorded in transfected cells by using borosilicate glass electrodes (tip resistance 4-9 M ohms) filled with the bath solution. […] Whole cell currents were recorded at room temperature, sampled at 5-10 kHz and filtered at 1-2 kHz. The I-V relationship was determined using 300 ms voltage steps from a holding potential of +20 mV to potentials from −100 to +100 mV at 10 mV intervals. To normalize measured membrane currents to membrane currents to membrane capacitance, the capacitive current transient recorded in response to a 10 mV hyperpolarizing pulse was integrated and divided by the given voltage to give total membrane capacitance (Cm) for each cell.

[2] = tested on: lung-metastatic B16-Fl0 melanoma cells; test: tumor cell adhesion assay on Lu-ECAM-1 coated wells; format: cell-based; details: wells coated with 100 μg/ml protein; 10 minutes at 37° C.
Procedure: Recombinant (r) Lu-ECAM-1 and wild type (wt) Lu-ECAM-1 were compared in their adhesion ability to lung-metastatic B16-Fl0 melanoma cells. Using anti-Lu-ECAM-1 mAb 6D3, wtLu-ECAM-1 was purified from extracts of bovine aortic endothelial cells, and rLu-ECAM-1 was purified from extracts of transfected HEK293 cells. The tumor cell adhesion assay was performed as described previously (Zhu et al., 1992, supra). Briefly, 100 μg/ml in phosphate buffered saline of either wtLu-ECAM-1 or rLu-ECAM-1 was used to coat wells of 96 plates overnight at 4° C. Wells were then washed with tissue culture medium, and each well is seeded with a suspension of tissue culture medium and 2×10^4 tumor cells which had been radio-labelled. After being spun onto the coated wells at 15 g for 1 minute, and incubated for 10 minutes at 37° C., nonadherent tumor cells were spun off at 150 g for 5 minutes. Adherent tumor cells were then dissolved in 1% SDS and counted in a liquid scintillation counter. Tumor cell attachment is recorded as the percent cells bound of the total cells seeded. Inhibition of tumor cell adhesion is determined by first incubating the Lu-ECAM-1 coated wells with mAb 6D3 (10 μg/ml) for 1 hour at room temperature before the tumor cells are added.

B1GF10 melanoma cells = details: mouse, in vivo; cited from earlier work

Molecule	effect on Ca2+ sensitive chloride current under whole cell conditions (mCLCA1)	whole cell current after addition of inhibitor (hCLCA1) [pA/pF]	sensitivity of the current to inhibitor (hCLCA2)	further results
O=S(=O)(O)c1cc(N=C=S)ccc1C=Cc1ccc(N=C=S)cc1S(=O)(=O)O [DIDS]	inhibited	1.63	sensitive	whole cell current after perfusion of inhibitor (mCLCA1; 300 uM DIDS, 2 mM Ca2+, basal 12.01±6.31 pA/pF): 1.84 ±0.96 pA/pF
O[C@@H](CS)[C@@H](O)CS [DTT]	inhibited	1.67	sensitive	
C[C@H](CCC(=O)O)C[C@H](C)C[C@H](C)C(=O)/C=C(\O)[C@H](C)C[C@H](C)C/C=C/[C@@H](C)[C@@H](O)[C@@H](C)[C@@H](O)C[C@@H]1CC[C@@](C)([C@H]2CC[C@@](C)([C@@H](C)O)O2)O1 [ionomycin]				whole cell current at +100 mV with ionomycin (mCLCA1; ionomycin 2 uM, low intracellular free Ca2+, basal 2.05±1.09 pA/pF): 10.23±3.46 pA/pF; maximally activated current at +100 mV after external perfusion of ionomycin (hCLCA1; ionomycin 2 uM, increase from 0.65 pA/pF): 11.06 pA/pF; activation of the current by ionomycin (hCLCA2; ionomycin 4 uM in bath, pipet about 25 nM Ca2+, 2 mM Ca2+ in the bath): activated the current; effect of ionomycin on current in non-transfected or control-transfected cells [1]: No significant effect
O=C(O)c1cccnc1Nc1cccc(C(F)(F)F)c1 [niflumic acid]	inhibited	2.07	sensitive	
CC/C(=C(\c1ccccc1)c1ccc(OCCN(C)C)cc1)c1ccccc1 [tamoxifen]			sensitive	
B1				adhesion of lung-metastatic tumor cells supported (percent cells bound of the total cells seeded) [2]: 43%; prevention or inhibition of metastatic colonization of the lungs by B1GF10 cells (B1GF10 melanoma cells): inhibition of metastatic colonization
